Where two headings read alike, the source gives them in different places.
Columns and labels:
HeLa = assay: ATP Assay (CellTiter-Glo), cellular ATP levels as surrogate for cell viability; format: cell-based, human; conditions: cellular ATP levels, 48 h, read-out: EC50 HeLa
Method: (§1) ATP Assay. […] At that time, media was removed and replaced with a solution of CellTiter-Glo reagent (Promega) in PBS. After ten minutes, luminescence was read using an EnVision multilabel plate reader (Perkin-Elmer) and signal intensity was calculated relative to in-plate DMSO control wells.
(§2) We next sought to determine the performance of the synthetic analogs relative to PL in cells. […] As a second assay, effects of compound treatments on ATP levels, a surrogate for cell viability, were measured after 48 hours.
(§3) Assays were performed in 384-well plates on two human cancer cell lines, H1703 (lung) and HeLa (cervix).

H1703 = assay: as above; format: cell-based, human; conditions: cellular ATP levels, 48 h, read-out: EC50 H1703
Method: as §1, §2, §3

[1] = Homo sapiens, NCI-H1703, Table 2
[2] = Homo sapiens, NCI-H1703, Table 1

Row | SMILES | EC50 (HeLa; Homo sapiens, HeLa, Table 2) | EC50 (H1703; [1]) | other results
1 | C=C(C)C(=O)NC(=O)/C=C/C [Cpd. 76, (E)-N-methacryloylbut-2-enamide] | > 20 µM | 8 µM | 
2 | COc1cc(/C=C/C(=O)N2C(=O)C=CCC2c2cccs2)cc(OC)c1OC (stereo not shown) [compound 10] | 4 µM | 2 µM | 
3 | O=C1C=CCCN1C(=O)/C=C/c1ccccc1Cl [compound 13] |  |  | EC50 (HeLa; Homo sapiens, HeLa, Table 1): 7.5 µM; EC50 (H1703; [2]): 4 µM
4 | COC(=O)CSC1CCN(C(=O)/C=C/c2cc(OC)c(OC)c(OC)c2)C(=O)C1 (stereo not shown) [Cpd. 7] |  |  | EC50 (HeLa; Homo sapiens, HeLa, Table 1): > 20 µM; EC50 (H1703; [2]): 7.9 µM
5 | CCCCCCCCCCC#CC1=CCCN(C(=O)/C=C/c2cc(OC)c(OC)c(OC)c2)C1=O [compound 57] | 9 µM | 4 µM | 
6 | COc1cc(/C=C/C(=O)N2CCC=C(C#Cc3cccc(Cl)c3)C2=O)cc(OC)c1OC [compound 40] | 5 µM | 1.5 µM | 
7 | COc1ccc(C2CC=CC(=O)N2C(=O)/C=C/c2cc(OC)c(OC)c(OC)c2)cc1 (stereo not shown) [compound 9] | 7 µM | 4 µM | 
8 | COc1cc(/C=C(\C)C(=O)N2CCC=CC2=O)cc(OC)c1OC [compound 37] | 18 µM | 4 µM | 
9 | CCCCC#CC1=CCCN(C(=O)/C=C/c2cc(OC)c(OC)c(OC)c2)C1=O [compound 31] | 2 µM | 0.9 µM | 
10 | O=C1C=CCCN1C(=O)c1cc2ccccc2o1 [compound 15] | 20 µM | 10 µM | 
11 | O=C(C#Cc1ccccc1)N1CCC=CC1=O [compound 75] | 4.1 µM | 0.91 µM | 
12 | COc1cc(/C=C/C(=O)N2CCC=C(C#CCc3ccccc3)C2=O)cc(OC)c1OC [compound 63] | 10 µM | 2 µM | 
13 | COc1cc(/C=C/C(=O)N2CCC=CC2=O)c(F)c(OC)c1OC [compound 23] | 3 µM | 0.8 µM | 
14 | O=C1C=CCCN1C(=O)/C=C/c1cccc(C(F)(F)F)c1 [compound 18] | 6 µM | 5 µM | 
15 | COc1cc(/C=C/C(=O)N2CCC=C(c3ccc(Oc4ccccc4)cc3)C2=O)cc(OC)c1OC [compound 71] | > 20 µM | > 20 µM | 
16 | COc1cc(/C=C/C(=O)N2C(=O)C=CCC2c2ccsc2)cc(OC)c1OC (stereo not shown) [Cpd. 7] | 2 µM | 2 µM | 
17 | COc1cc(/C=C/C(=O)N2CCC=C(c3ccccc3)C2=O)cc(OC)c1OC [compound 18] |  |  | EC50 (HeLa; Homo sapiens, HeLa, Table 1): > 20 µM; EC50 (H1703; [2]): > 20 µM
18 | O=C1C=CCCN1C(=O)/C=C/C(=O)N1CCC=CC1=O [compound 74] | 11 µM | 2.3 µM | 
19 | COc1cc(/C=C/C(=O)N2C(=O)C=CCC2c2cccnc2)cc(OC)c1OC (stereo not shown) [compound 8] | 6 µM | 3 µM | 
20 | O=C1C=CCCN1C(=O)c1cc2ccccc2s1 [compound 10] |  |  | EC50 (HeLa; Homo sapiens, HeLa, Table 1): > 20 µM; EC50 (H1703; [2]): 18 µM
21 | COc1cc(/C=C/C(=O)N2CCC=C(c3ccc(C)cc3)C2=O)cc(OC)c1OC [compound 66] | > 20 µM |  | 
22 | COc1cc(/C=C/C(=O)N2CC(c3cccs3)C=CC2=O)cc(OC)c1OC (stereo not shown) [compound 15] |  |  | EC50 (HeLa; Homo sapiens, HeLa, Table 1): 15 µM; EC50 (H1703; [2]): 6.5 µM
23 | COc1cc(/C=C/C(=O)N2CCC(C)=CC2=O)cc(OC)c1OC [compound 26] |  |  | EC50 (HeLa; Table 2): > 20 µM; EC50 (H1703; Table 2): > 20 µM

Row | SMILES | EC50 (HeLa; Homo sapiens, HeLa, Table 2) | EC50 (H1703; [1]) | other results
24 | O=C1C=CCCN1C(=O)/C=C/c1ccc(/C=C/C(=O)N2CCC=CC2=O)cc1 [compound 78] | 0.78 µM | 0.3 µM | 
25 | COc1cc(/C=C/C(=O)N2CCC(C)=CC2=O)cc(OC)c1OC [compound 8] |  |  | EC50 (HeLa; Homo sapiens, HeLa, Table 1): > 20 µM; EC50 (H1703; [2]): > 20 µM
26 | COc1cc(/C=C/C(=O)N2CCC=CC2=O)cc(OC)c1OCCN(C)C [compound 32] | 4 µM | 1.5 µM | 
27 | CCC1=C(C)CN(C(=O)/C=C/c2cc(OC)c(OC)c(OC)c2)C1=O [compound 21] | > 20 µM | > 20 µM | 
28 | COc1cc(/C=C/C(=O)N2C(=O)C=CCC2c2ccccc2)cc(OC)c1OC (stereo not shown) [compound 50] |  |  | EC50 (HeLa; Table 2): 6.8 µM; EC50 (H1703; Table 2): 3.6 µM
29 | COc1cc(/C=C/C(=O)N2CCC=C(C#Cc3ccccc3)C2=O)cc(OC)c1OC [compound 61] | 1.5 µM | 0.5 µM | 
30 | COc1cc(/C=C/C(=O)N2CCC=C(c3ccccc3)C2=O)cc(OC)c1OC [compound 54] |  |  | EC50 (HeLa; Table 2): > 20 µM; EC50 (H1703; Table 2): > 20 µM
31 | COc1cc(/C=C/C(=O)N2CCC=C(C#CC3CCCCC3)C2=O)cc(OC)c1OC [compound 59] | 3 µM | 1.5 µM | 
32 | C/C(=C\C(=O)N1CCC=CC1=O)c1ccccc1 [compound 27] |  |  | EC50 (HeLa; Table 2): > 20 µM; EC50 (H1703; Table 2): 14 µM
33 | CC1=C(C(=O)N2CCC=CC2=O)Cc2ccccc21 [compound 42] | > 20 µM | 12 µM | 
34 | COc1cc(/C=C/C(=O)N2CCC=C(C#CC3(O)CCCCC3)C2=O)cc(OC)c1OC [compound 36] | 1.5 µM | 0.5 µM | 
35 | COc1cc(/C=C/C(=O)N2CCC=CC2=O)cc(OC)c1OCCN(C)CCOc1c(OC)cc(/C=C/C(=O)N2CCC=CC2=O)cc1OC [compound 67] | 0.5 µM | 0.2 µM | 
36 | COc1cc(/C=C/C(=O)N2CCC=C(C#CC(C)(C)C)C2=O)cc(OC)c1OC [compound 43] | 1.2 µM | 0.7 µM | 
37 | COc1cc(/C=C/C(=O)N2CCC=C(C)C2=O)cc(OC)c1OC [compound 3, (E)-3-methyl-1-(3-(3,4,5-trimethoxyphenyl)prop-2-enoyl)-5,6-dihydropyridin-2(1H)-one] |  |  | EC50 (HeLa; Homo sapiens, HeLa, Table 1): > 20 µM; EC50 (HeLa; Table 2): > 20 µM; EC50 (H1703; [2]): > 20 µM; EC50 (H1703; Table 2): > 20 µM
38 | COc1cc2c(c(OC)c1OC)CCC(C(=O)N1CCC=CC1=O)=C2 [compound 11] |  |  | EC50 (HeLa; Homo sapiens, HeLa, Table 1): > 20 µM; EC50 (H1703; [2]): 14 µM
39 | C=C(C)C(=O)N1CCC=CC1=O [compound 73] | 19 µM | 4.7 µM | 
40 | COc1cc(/C=C/C(=O)N2CCC=C(C#Cc3ccc(OC(F)(F)F)cc3)C2=O)cc(OC)c1OC [compound 48] | 3 µM | 0.7 µM | 
41 | O=C1C=CCCN1C(=O)/C=C/c1ccccc1Cl [compound 49] |  |  | EC50 (HeLa; Table 2): 7.5 µM; EC50 (H1703; Table 2): 4 µM
42 | C/C(=C\C(=O)N1CCC=CC1=O)c1ccccc1 [compound 9] |  |  | EC50 (HeLa; Homo sapiens, HeLa, Table 1): > 20 µM; EC50 (H1703; [2]): 14 µM
43 | COc1cc(/C=C/C(=O)N2CCC=C(C#Cc3ccccc3Cl)C2=O)cc(OC)c1OC [compound 35] | 1.5 µM | 0.6 µM | 
44 | COc1cc(CCC(=O)N2CCCCC2=O)cc(OC)c1OC [compound 65] | > 20 µM |  | 
45 | COc1cc(/C=C/C(=O)N2CCC=C(C3CCCCC3)C2=O)cc(OC)c1OC [compound 44] | > 20 µM | > 20 µM | 
46 | COc1cc(/C=C/C(=O)N2CCC=C(c3cccnc3)C2=O)cc(OC)c1OC [compound 24] | > 20 µM | > 20 µM | 

Row | SMILES | EC50 (HeLa; Homo sapiens, HeLa, Table 2) | EC50 (H1703; [1]) | other results
47 | COc1cc(/C=C/C(=O)N2CCC=CC2=O)cc(OC)c1OCCN(CCOc1c(OC)cc(/C=C/C(=O)N2CCC=CC2=O)cc1OC)CCOc1c(OC)cc(/C=C/C(=O)N2CCC=CC2=O)cc1OC [compound 41] | 0.3 µM | 0.1 µM | 
48 | O=C1C=CCCN1C(=O)c1cc2ccccc2oc1=O [compound 34] | 15 µM | 5 µM | 
49 | COc1cc(/C=C/C(=O)N2CCC(C)=C(C)C2=O)cc(OC)c1OC [compound 47] | > 20 µM | > 20 µM | 
50 | COc1cc(/C=C(\F)C(=O)N2CCC=CC2=O)cc(OC)c1OC [compound 58] | 11 µM | 8 µM | 
51 | COc1cc(/C=C/C(=O)N2CCC=C(I)C2=O)cc(OC)c1OC [compound 55] | > 20 µM | 3 µM | 
52 | COc1cc(/C=C/C(=O)N2C(=O)C=CCC2c2ccccc2)cc(OC)c1OC (stereo not shown) [compound 14] |  |  | EC50 (HeLa; Homo sapiens, HeLa, Table 1): 6.8 µM; EC50 (H1703; [2]): 3.6 µM
53 | O=C1C=CCCN1C(=O)/C(F)=C/c1ccccc1 [compound 70] | > 20 µM | 10 µM | 
54 | COc1cc(/C=C/C(=O)N2CCC=C(C#Cc3ccsc3)C2=O)cc(OC)c1OC [compound 69] | 2 µM | 1 µM | 
55 | O=C1C=CCCN1C(=O)CCC(=O)N1CCC=CC1=O [compound 77] | 15 µM | 5.5 µM | 
56 | COc1cc(/C=C/C(=O)N2CCC=C(C#Cc3ccc(F)cc3)C2=O)cc(OC)c1OC [compound 68] | 0.9 µM | 0.4 µM | 
57 | COC1=CC(=O)N(C(=O)/C=C/c2cc(OC)c(OC)c(OC)c2)C1 [compound 19] | > 20 µM |  | 
58 | COc1cc(/C=C/C(=O)N2CCC=C(C#CC3CCCC3)C2=O)cc(OC)c1OC [compound 17] | 3 µM | 1 µM | 
59 | COc1cc(/C=C/C(=O)N2CC=CCC2=O)cc(OC)c1OC [compound 46] | > 20 µM | 13 µM | 
60 | O=C1C=CCCN1C(=O)/C=C/c1cccc(Br)c1 [compound 62] | 7 µM | 5 µM | 
61 | O=C1C=CCCN1C(=O)c1cc2ccccc2s1 [compound 28] |  |  | EC50 (HeLa; Table 2): > 20 µM; EC50 (H1703; Table 2): 18 µM
62 | O=Cc1ccc(/C=C/C(=O)N2CCC=CC2=O)cc1 [compound 14] | 8 µM | 5 µM | 
63 | O=C1C=CCCN1C(=O)c1ccc2ccccc2c1 [compound 22] | 20 µM | 9 µM | 
64 | COc1cc(/C=C/C(=O)N2CC(c3cccs3)C=CC2=O)cc(OC)c1OC (stereo not shown) [compound 51] |  |  | EC50 (HeLa; Table 2): 15 µM; EC50 (H1703; Table 2): 6.5 µM
65 | COc1cc(/C=C/C(=O)N2C(=O)C=CCC2C2CCCC2)cc(OC)c1OC (stereo not shown) [compound 12] | 6 µM | 6 µM | 
66 | COc1cc(/C=C/C(=O)N2CCC=C(C#CC3=CCCCC3)C2=O)cc(OC)c1OC [compound 45] | 5 µM | 3 µM | 
67 | COc1cc(/C=C/C(=O)N2CCC=C(c3ccc(F)cc3)C2=O)cc(OC)c1OC [compound 20] | > 20 µM | > 20 µM | 

Source: patent US9108923B2, “Compounds, compositions, and methods for cancer therapy” (The Broad Institute, Inc., priority 2012, dated 2015)
